Measurements: patent US8067613B2 (Abbott Laboratories, priority 2007, dated 2011)

Target: T1, Recombinant Human Poly(ADP-Ribose)Polymerase (PARP), PARP-1 (Homo sapiens, UniProt P09874)
T1 construct: purchased Trevigen (Gaithersburg, Md.); host or cells: E. coli
Assay: PARP1 assay (SPA/FlashPlate, [3H]-NAD+ incorporation into biotinylated histone H1)
Format: biochemical
Conditions: 1 nM PARP enzyme, 1.5 μM [3H]-NAD+, 200 nM biotinylated histone H1, 200 nM slDNA; Ki from inhibition curves at various substrate concentrations
Procedure: Nicotinamide[2,5′,8-3H]adenine dinucleotide and strepavidin SPA beads were obtained from Amersham Biosiences (UK). Recombinant Human Poly(ADP-Ribose)Polymerase (PARP), purified from E. coli and 6-Biotin-17-NAD^+, were obtained from Trevigen (Gaithersburg, Md.). NAD^+, histone, aminobenzamide, 3-aminobenzamide and Calf Thymus DNA (dcDNA) were obtained from Sigma (St. Louis, Mo.). Stem loop oligonucleotide containing MCAT sequence was obtained from Qiagen. The oligos were dissolved to 1 mM in annealing buffer containing 10 mM Tris HCl (pH 7.5), 1 mM EDTA, and 50 mM NaCl, incubated for 5 minutes at 95° C. and annealed at 45° C. for 45 minutes. Histone H1 (95% electrophoretically pure) was obtained from Roche (Indianapolis, Ind. Biotinylated histone H1 was prepared by treating the protein with Sulfo-NHS-LC-Biotin (Pierce Rockford, Ill.). The biotinylation reaction was conducted by slowly and intermittently adding 3 equivalents of 10 mM Sulfo-NHS-LC-Biotin to 100 μM Histone H1 in phosphate-buffered saline, pH 7.5, at 4° C. with gentle vortexing over 1 minute then incubation at 4° C. for 1 hour. Streptavidin coated (FlashPlate Plus) microplates were obtained from Perkin Elmer (Boston, Mass.).
PARP1 assay was conducted in PARP assay buffer containing 50 mM tris (pH 8.0), 1 mM DTT and 4 mM MgCl2. PARP reactions contained 1.5 μM [^3H]-NAD^+ (1.6 μCi/mmol), 200 nM biotinylated histone H1, 200 nM slDNA, and 1 nM PARP enzyme. Auto reactions utilizing SPA bead-based detection were carried out in 100 μL volumes in white 96 well plates.
Reactions were initiated by adding 50 μL of 2×NAD^+ substrate mixture to 50 μL of 2× enzyme mixture containing PARP and DNA. These reactions were terminated by the addition of 150 μL of 1.5 mM benzamide (1000-fold over its IC50). 170 μL of the stopped reaction mixtures were transferred to streptavidin Flash Plates, incubated for 1 hour and counted using a TopCount microplate scintillation counter. The Ki data (in nM) for representative compounds of this invention were determined from inhibition curves at various substrate concentrations and are shown in TABLE 1.

T1 sequence (P09874 whole entry): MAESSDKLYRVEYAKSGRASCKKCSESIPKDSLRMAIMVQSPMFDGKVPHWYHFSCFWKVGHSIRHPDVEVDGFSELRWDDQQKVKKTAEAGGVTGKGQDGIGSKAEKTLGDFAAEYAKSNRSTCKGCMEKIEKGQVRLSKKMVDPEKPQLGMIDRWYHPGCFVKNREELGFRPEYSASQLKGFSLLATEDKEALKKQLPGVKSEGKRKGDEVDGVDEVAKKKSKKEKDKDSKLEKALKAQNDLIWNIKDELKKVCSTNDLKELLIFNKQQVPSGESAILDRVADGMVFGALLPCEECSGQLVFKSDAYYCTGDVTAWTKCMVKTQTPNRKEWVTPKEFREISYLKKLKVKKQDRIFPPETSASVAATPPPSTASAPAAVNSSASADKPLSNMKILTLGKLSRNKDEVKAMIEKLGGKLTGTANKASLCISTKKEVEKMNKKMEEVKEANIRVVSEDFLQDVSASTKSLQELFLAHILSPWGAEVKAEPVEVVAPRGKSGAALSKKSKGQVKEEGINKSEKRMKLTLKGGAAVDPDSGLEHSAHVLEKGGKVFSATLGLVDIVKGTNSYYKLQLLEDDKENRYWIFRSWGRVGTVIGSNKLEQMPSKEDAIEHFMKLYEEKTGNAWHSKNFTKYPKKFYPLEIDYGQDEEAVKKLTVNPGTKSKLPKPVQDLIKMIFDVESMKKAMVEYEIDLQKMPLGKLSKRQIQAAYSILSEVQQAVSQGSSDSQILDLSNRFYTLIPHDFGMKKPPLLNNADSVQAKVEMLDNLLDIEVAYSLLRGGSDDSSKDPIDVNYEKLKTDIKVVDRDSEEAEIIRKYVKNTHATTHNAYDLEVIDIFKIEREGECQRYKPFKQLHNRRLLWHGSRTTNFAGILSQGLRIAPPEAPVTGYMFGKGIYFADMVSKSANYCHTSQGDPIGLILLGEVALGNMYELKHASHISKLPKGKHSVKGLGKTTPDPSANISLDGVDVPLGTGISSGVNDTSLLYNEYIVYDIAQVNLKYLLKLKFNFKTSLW

Ki [nM]	SMILES
41	CC(C)N1CCCC1c1ccc(-c2nc3c(C(N)=O)cccc3[nH]2)cn1 (centres unmarked) [Example 44, 2-[6-(1-isopropylpyrrolidin-2-yl)pyridin-3-yl]-1H-benzimidazole-4-carboxamide]
5	CC(C)N1CCCC1c1ccc(-c2nc3c(C(N)=O)cccc3[nH]2)s1 (centres unmarked) [Example 36, 2-(5-(1-isopropylpyrrolidin-2-yl)thien-2-yl)-1H-benzimidazole-4-carboxamide]
20.9	NC(=O)c1cccc2[nH]c(-c3csc(-c4cccs4)n3)nc12 [Example 4, 2-(2-thien-2-yl-1,3-thiazol-4-yl)-1H-benzimidazole-4-carboxamide]
3.2	NC(=O)c1cccc2[nH]c(-c3ccc(-c4ccncc4)s3)nc12 [Example 14, 2-(5-pyridin-4-ylthien-2-yl)-1H-benzimidazole-4-carboxamide]
28	Cc1nc(-c2cnccn2)sc1-c1nc2c(C(N)=O)cccc2[nH]1 [Example 3, 2-(4-methyl-2-pyrazin-2-yl-1,3-thiazol-5-yl)-H-benzimidazole-4-carboxamide]
8	CCCN1CCC[C@@H]1c1ccc(-c2nc3c(C(N)=O)cccc3[nH]2)s1 [Example 19, 2-(5-((2R)-1-propylpyrrolidin-2-yl)thien-2-yl)-1H-benzimidazole-4-carboxamide]
11.8	NC(=O)c1cccc2[nH]c(-c3csc(-c4ccncc4)n3)nc12 [Example 2]
23	NC(=O)c1cccc2[nH]c(-c3ccc(C4CCCCN4C4CCC4)s3)nc12 (centres unmarked) [Example 32, 2-(5-(1-cyclobutylpiperidin-2-yl)thien-2-yl)-1H-benzimidazole-4-carboxamide]
12	NC(=O)c1cccc2[nH]c(-c3ccc([C@H]4CCCN4C4CCOCC4)s3)nc12 [Example 24, 2-(5-((2R)-1-tetrahydro-2H-pyran-4-ylpyrrolidin-2-yl)thien-2-yl)-1H-benzimidazole-4-carboxamide]
14	NC(=O)c1cccc2[nH]c(-c3ccc(C4CCCN4C4CCCC4)nc3)nc12 (centres unmarked) [Example 47, 2-[6-(1-cyclopentylpyrrolidin-2-yl),pyridin-3-yl]-1H-benzimidazole-4-carboxamide]
7	CN1CCCC1c1ccc(-c2nc3c(C(N)=O)cccc3[nH]2)s1 (centres unmarked) [Example 35, 2-(5-(1-methylpyrrolidin-2-yl)thien-2-yl)-1H-benzimidazole-4-carboxamide]
3.1	NC(=O)c1cccc2[nH]c(-c3ccc(-c4ccccn4)s3)nc12 [Example 10, 2-(5-pyridin-2-ylthien-2-yl)-1H-benzimidazole-4-carboxamide]
9	NC(=O)c1cccc2[nH]c(-c3ccc(-c4ncccn4)s3)nc12 [Example 12, 2-(5-pyrimidin-2-ylthien-2-yl)-1H-benzimidazole-4-carboxamide]
44	NC(=O)c1cccc2[nH]c(-c3csc(C4CCN(C5CCC5)CC4)n3)nc12 [Example 9, 2-(2-(1-cyclobutylpiperidin-4-yl)-1,3-thiazol-4-yl)-1H-benzimidazole-4-carboxamide]
10	NC(=O)c1cccc2[nH]c(-c3ccc(C4CCCN4C4CCC4)s3)nc12 (centres unmarked) [Example 40, 2-(5-(1-cyclobutylpyrrolidin-2-yl)thien-2-yl)-1H-benzimidazole-4-carboxamide]
7	NC(=O)c1cccc2[nH]c(-c3ccc(C4CCCN4)s3)nc12 (centres unmarked) [Example 34, 2-(5-pyrrolidin-2-ylthien-2-yl)-1H-benzimidazole-4-carboxamide]
45	CN1CCC(c2nc(-c3nc4c(C(N)=O)cccc4[nH]3)cs2)CC1 [Example 6, 2-(2-(1-methylpiperidin-4-yl)-1,3-thiazol-4-yl)-1H-benzimidazole-4-carboxamide]
1.8	NC(=O)c1cccc2[nH]c(-c3ccc(-c4nnco4)cn3)nc12 [Example 51, 2-[5-(1,3,4-oxadiazol-2-yl)pyridin-2-yl]-1H-benzimidazole-4-carboxamide]
2	NC(=O)c1cccc2[nH]c(-c3ccc(-c4cnccn4)s3)nc12 [Example 11, 2-(5-pyrazin-2-ylthien-2-yl)-1H-benzimidazole-4-carboxamide]

Ki [nM]	SMILES
8	CC(C)CN1CCC[C@@H]1c1ccc(-c2nc3c(C(N)=O)cccc3[nH]2)s1 [Example 27, 2-(5-((2R)-1-isobutylpyrrolidin-2-yl)thien-2-yl)-1H-benzimidazole-4-carboxamide]
7	CCCN1CCCC1c1ccc(-c2nc3c(C(N)=O)cccc3[nH]2)s1 (centres unmarked) [Example 37, 2-(5-(1-propylpyrrolidin-2-yl)thien-2-yl)-1H-benzimidazole-4-carboxamide]
21	CC(C)CN1CCCCC1c1ccc(-c2nc3c(C(N)=O)cccc3[nH]2)s1 (centres unmarked) [Example 33, 2-(5-(1-isobutylpiperidin-2-yl)thien-2-yl)-1H-benzimidazole-4-carboxamide]
11	NC(=O)c1cccc2[nH]c(-c3ccc(C4CCCCN4CC4CC4)s3)nc12 (centres unmarked) [Example 31, 2-(5-(1-(cyclopropylmethyl)piperidin-2-yl)thien-2-yl)-1H-benzimidazole-4-carboxamide]
7	NC(=O)c1cccc2[nH]c(-c3ccc(C4CCCCN4)s3)nc12 (centres unmarked) [Example 28, 2-(5-piperidin-2-ylthien-2-yl)-1H-benzimidazole-4-carboxamide]
4	NC(=O)c1cccc2[nH]c(-c3ccc([C@H]4CCCN4C4CCC4)s3)nc12 [Example 21, 2-(5-((2R)-1-cyclobutylpyrrolidin-2-yl)thien-2-yl)-1H-benzimidazole-4-carboxamide]
3	NC(=O)c1cccc2[nH]c(-c3ccc(C4CCCN4)nc3)nc12 (centres unmarked) [Example 43, 2-(6-pyrrolidin-2-ylpyridin-3-yl)-1H-benzimidazole-4-carboxamide]
6	CC(C)N1CCC[C@@H]1c1ccc(-c2nc3c(C(N)=O)cccc3[nH]2)s1 [Example 18, 2-(5-((2R)-1-isopropylpyrrolidin-2-yl)thien-2-yl)-1H-benzimidazole-4-carboxamide]
50	CCCN1CCC(c2nc(-c3nc4c(C(N)=O)cccc4[nH]3)cs2)CC1 [Example 8, 2-(2-(1-propylpiperidin-4-yl)-1,3-thiazol-4-yl)-1H-benzimidazole-4-carboxamide]
16	CCCN1CCCCC1c1ccc(-c2nc3c(C(N)=O)cccc3[nH]2)s1 (centres unmarked) [Example 30, 2-(5-(1-propylpiperidin-2-yl)thien-2-yl)-1H-benzimidazole-4-carboxamide]
11	CC(C)CN1CCCC1c1ccc(-c2nc3c(C(N)=O)cccc3[nH]2)cn1 (centres unmarked) [Example 45, 2-[6-(1-isobutylpyrrolidin-2-yl),pyridin-3-yl]-1H-benzimidazole-4-carboxamide]
5	NC(=O)c1cccc2[nH]c(-c3ccc([C@H]4CCCN4CC4CC4)s3)nc12 [Example 20, 2-(5-((2R)-1-(cyclopropylmethyl)pyrrolidin-2-yl)thien-2-yl)-1H-benzimidazole-4-carboxamide]
2.4	NC(=O)c1cccc2[nH]c(-c3ccc(-c4cccnc4)s3)nc12 [Example 13, 2-(5-pyridin-3-ylthien-2-yl)-1H-benzimidazole-4-carboxamide]
5	NC(=O)c1cccc2[nH]c(-c3ccc(C4CCCN4C4CCCC4)s3)nc12 (centres unmarked) [Example 41, 2-(5-(1-cyclopentylpyrrolidin-2-yl)thien-2-yl)-1H-benzimidazole-4-carboxamide]
10	NC(=O)c1cccc2[nH]c(-c3ccc([C@H]4CCCN4Cc4ccccn4)s3)nc12 [Example 25, 2-(5-((2R)-1-(pyridin-2-ylmethyl)pyrrolidin-2-yl)thien-2-yl)-1H-benzimidazole-4-carboxamide]
14	NC(=O)c1cccc2[nH]c(-c3ccc(-c4nnc(C(F)(F)F)o4)cn3)nc12 [Example 52, 2-{5-[5-(trifluoromethyl)-1,3,4-oxadiazol-2-yl]pyridin-2-yl}-1H-benzimidazole-4-carboxamide]
8	NC(=O)c1cccc2[nH]c(-c3ccc([C@H]4CCCN4C4CCCCC4)s3)nc12 [Example 23, 2-(5-((2R)-1-cyclohexylpyrrolidin-2-yl)thien-2-yl)-1H-benzimidazole-4-carboxamide]
32	NC(=O)c1cccc2[nH]c(-c3csc(C4CCNCC4)n3)nc12 [Example 5, 2-(2-piperidin-4-yl-1,3-thiazol-4-yl)-1H-benzimidazole-4-carboxamide]
6	NC(=O)c1cccc2[nH]c(-c3ccc([C@H]4CCCN4)s3)nc12 [Example 16, 2-(5-((2R)-pyrrolidin-2-yl)thien-2-yl)-1H-benzimidazole-4-carboxamide]
